Consider 2 compounds from patent US6511979B1, “Methods for treating conditions modulated by lactosylceramide” (Johns Hopkins University, priority 1998, dated 2003).

Structures are written as SMILES. Entries after “also recorded” stand apart in the source; their conditions may differ.

One test has as its system vascular cells. The note with it: reported in literature; cited from earlier work.
A further test has as its target T1, GlcT-1 (Homo sapiens, UniProt Q16739).
T1 sequence (Q16739 1-394): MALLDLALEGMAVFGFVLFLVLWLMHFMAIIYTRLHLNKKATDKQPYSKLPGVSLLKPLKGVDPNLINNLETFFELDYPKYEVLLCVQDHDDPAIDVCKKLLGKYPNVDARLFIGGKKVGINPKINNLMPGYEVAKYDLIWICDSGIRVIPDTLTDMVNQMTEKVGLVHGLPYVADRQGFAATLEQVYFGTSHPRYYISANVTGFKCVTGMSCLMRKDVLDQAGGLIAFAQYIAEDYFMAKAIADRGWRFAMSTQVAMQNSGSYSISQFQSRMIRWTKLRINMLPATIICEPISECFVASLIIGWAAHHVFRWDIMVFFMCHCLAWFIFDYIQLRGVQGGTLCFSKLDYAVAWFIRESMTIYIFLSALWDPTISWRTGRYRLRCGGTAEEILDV
The settings on record: reported in literature; cited from earlier work.

The subject of test [1] is LacCer-responsive cells. In words: cell proliferation in LacCer-responsive cells. Type of test: cell-based. The protocol: Preferably, the GalT-2 enhancing compound promotes cell proliferation by at least 10 to 25%, preferably at least about 50%, relative to a suitable control assay. In such an assay, between about 0.1 to 100 μM, preferably between about 1 to 50 μM of a desired GalT-2 enhancing compound is used. Exemplary cell proliferation assays include counting viable cells and monitoring activity of specified citric acid cycle enzymes such as lactate dehydrogenase. A preferred assay measures incorporation of one or more detectably-labeled nucleosides into DNA, e.g., by:
a) culturing suitable cells in medium and adding 1) a candidate GalT-2 enhancing compound and 2) a radiolabeled nucleoside such as ^3H-thymidine typically in an amount between about 0.1 to 100 μCi;
b) incubating the cells, e.g., for about 6-24 hours, and typically followed by washing; and
The measurement can be achieved by several methods including trichloroacetic acid (TCA) precipitation of labeled DNA on filters followed by scintillation counting. See e.g., Chatterjee, S., Biochem. Biophys. Res Comm. (1991) 181:554; Chatterjee, S. et al. (1982) Eur. J. Biochem. 120:435 for disclosure relating to this assay.
References herein to a “standard in vitro cell proliferation assay” or other similar phrase refer to an assay that includes the above steps a) through c). […]

For test [2], the system named is LacCer-responsive cells. In words: cell adhesion in LacCer-responsive cells. The class given is cell-based. The protocol:
Preferably, the GalT-2 enhancing compound increases cell adhesion by at least 25%, preferably at least 50% or more relative to a suitable control assay. In such an assay, between about 0.1 to 100 μM, preferably between about 1 to 50 μM of a desired GalT-2 enhancing compound is used. For example, a preferred cell adhesion assay includes the following steps:
a) labeling a first population of immune cells, preferably certain leukocytes, with a detectable label which can be a chromatic, radioactive, luminescent (e.g., fluorescent, or phosphorescent), or enzymatic label capable of producing a detectable label, […]
References herein to a “standard in vitro cell adhesion assay” or other similar phrase refer to an assay that includes the above steps a) through c). The detection in step c) can be achieved by a variety of methods such as microscopy (by manually counting cells), particularly confocal microscopy and fluorescence-based photomicroscopy involving FACS; automated cell sorting techniques, immunological methods such as ELISA and RIA; and scintillation counting. […]
A preferred in vitro cell adhesion assay measures polymorphonuclear leukocytes (PMNs and/or monocytes) or platelets and increased endothelial cell adhesion before, during or after contact with a desired GalT-2 enhancing compound. […] Adhering cells are then quantitated by standard methods such as by use of a fluorescence plate reader. […]

The next test concerns GalT-2. In words: GalT-2 activity assay (standard in vitro GalT-2 assay / GalT-2 enzyme assay). Type of test: cell-based. The text has this:
Preferred in vitro detection assays according to the present invention involve one or more steps associated with LacCer-related pathways. Such assays include the following steps 1) through 4):
1) culturing a population of LacCer-responsive cells with LacCer;
2) adding a known or candidate GalT-2 enhancing compound to the cells;
3) measuring activity of a cell molecule or function in the LacCer-related pathway; and
4) determining the effect of the known or candidate GalT-2 enhancing compound on the cell, e.g., by measuring activity of the cell molecule or function. Typically, the cell function will be one or more of cell proliferation, cell adhesion or expression of specified surface proteins on the cells. Examples of cell molecules include LacCer-responsive enzymes as specified below.
That assay can effectively measure the capacity of the GalT-2 enhancing compound to promote GalT-2 activity. References herein to a “standard in vitro GalT-2 assay” or other similar phrase refers to the above protocol of steps 1) through 4) when the specified cell molecule measured in step 3) above is GalT-2. As described in more detail below, other in vitro assays of the invention measure specified cell molecules in the LacCer-related steps or pathways. The in vitro assays of the present invention can be conducted with nearly any population of cells responsive to LacCer as provided below. […]

Turning to `CCCCCCCCCC(=O)NC(CN1CCOCC1)C(O)c1ccccc1` [D-PDMP, 1-phenyl-2-decanolylamino-3-morpholino-1-propanol], the “effect on proliferation of vascular cells” value in the test on vascular cells is “reduces proliferation of vascular cells”. Also, on GlcT-1, the “effect on GlcT-1” value is “inhibits GlcT-1”.

Turning to `CCCCCCCCCC(=O)N[C@@H](CN1CCOCC1)C(O)c1ccccc1` (stereo partly drawn) [L-PDMP, L-1-phenyl-2-decanoylamino-3-morpholino-1-propanol], in the test on LacCer-responsive cells [1], the “effect on proliferation in LacCer-responsive cells” value is recorded as “increasing proliferation”. Further, the “effect on adhesion in LacCer-responsive cells” value in the test with LacCer-responsive cells [2] is “increasing proliferation and adhesion”. Also, the “effect on GalT-2 activity” value in the test on GalT-2 is reported as “increase the activity of GalT-2; also recorded: effectively stimulating GalT-2”.
